According to US20140107049A1, “MANNOSE DERIVATIVES FOR TREATING BACTERIAL INFECTIONS” (priority 2012, published 2014):

molecular target: FimH-CRD (Escherichia coli, UniProt P08191); assay: Competitive binding assay (fluorescence polarization, Alexa647 mannoside probe)
Protocol: The following competitive binding assay is performed: Round bottom, low volume 384-well microtiter plates are filled with 20 μl/well of a binding solution of FimH-CRD in 50 mM Tris, pH 7.0, 100 mM NaCl, 1 mM EDTA, 5 mM beta mercaptoethanol, 0.05% BSA, 5 nM of the Alexa647 mannoside probe and 60 nM of the FimH-CRD. Control wells using the same conditions but no FimH-CRD added are also prepared (protein-free). Compounds are serially diluted (12-point dose) in DMSO from 75 μM down to 0.4 nM. Compounds or DMSO are then added to each well (0.5 μl) to reach the final concentration of each drug (2.5% final DMSO concentration), in duplicate. Plates are then incubated for a minimum of five hours at room temperature in the dark. Plates are then read using the SpectaMax Paradigm Multi-Mode plate reader and the appropriate fluorescent polarization Detection cartridge (Alexa-647).
Alexa 647 mannoside probe is prepared using the similar procedure reported for FAM mannoside (Han, Z. et. al., 2010, J. Med. Chem., 53, 4779) and is described in the scheme below.
To a blue colored stirred solution of (2S,3S,4S,5S,6R)-2-(4-aminobutoxy)-6-(hydroxymethyl)tetrahydropyran-3,4,5-triol (2.21 mg, 0.009 mmol) and the (2E)-2-[(2E,4E)-5-[3,3-dimethyl-5-sulfonato-1-(3-sulfonatopropyl)indol-1-ium-2-yl]penta-2,4-dienylidene]-3-[6-(2,5-dioxopyrrolidin-1-yl)oxy-6-oxo-hexyl]-3-methyl-1-(3-sulfonatopropyl)indoline-5-sulfonate (Potassium Ion (3)) (4.9 mg, 0.0044 mmol) in DMF (44 μL) is added Et3N (5.4 mg, 7.0 μL, 0.053 mmol) at rt. The solution is stirred at room temperature over night, concentrated, dissolved in water and purified on 12 g C-18 silica gel cartridge on Isolera system using acetonitrile in water (0 to 40%, 10 CV) and followed by lyophilization to afford Alexa 647 mannoside probe (3.3 mg, 34%) as deep blue solid.
The Kd values of the compounds tested in duplicates are calculated with prism software (GraphPad Software, Inc, La Jolla, USA) with Alexa-647 probe and FimH-CRD.

FimH-CRD, sequence (P08191 22-177): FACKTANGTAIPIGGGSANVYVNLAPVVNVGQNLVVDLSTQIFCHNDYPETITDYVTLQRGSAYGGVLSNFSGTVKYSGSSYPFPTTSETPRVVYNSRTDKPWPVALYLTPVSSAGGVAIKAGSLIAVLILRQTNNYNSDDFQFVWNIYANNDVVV

Structure (SMILES) | Kd [nM]
CNC(=O)c1cccc(-c2ccc(O[C@H]3O[C@H](CO)[C@@H](O)[C@H](C(O)[C@H]4O[C@H](CO)[C@@H](O)[C@H](O)[C@@H]4O)[C@@H]3O)cc2)c1 (stereo partly drawn) [Compound 1, 3-[4-[(2R,3S,4R,5S,6R)-3,5-Dihydroxy-6-(hydroxymethyl)-4-[hydroxy-[(2R,3S,4S,5S,6R)-3,4,5-trihydroxy-6-(hydroxymethyl)tetrahydropyran-2-yl]methyl]tetrahydropyran-2-yl]oxyphenyl]-N-methyl-benzamide] | 29
CO[C@H]1O[C@H](CO)[C@@H](O)[C@H](C(O)[C@H]2O[C@H](CO)[C@@H](O)[C@H](O)[C@@H]2O)[C@@H]1O (stereo partly drawn) [Compound 2, (2R,3S,4S,5S,6R)-2-[[(2R,3S,4R,5S,6S)-3,5-Dihydroxy-2-(hydroxymethyl)-6-methoxy-tetrahydropyran-4-yl]-hydroxy-methyl]-6-(hydroxymethyl)tetrahydropyran-3,4,5-triol] | 124
CNC(=O)c1cccc(-c2ccc(O[C@H]3O[C@H](CO)[C@@H](O)[C@H](C[C@H]4O[C@H](CO)[C@@H](O)[C@H](O)[C@@H]4O)[C@@H]3O)cc2)c1 [Compound 3, 3-[4-[(2R,3S,4S,5S,6R)-3,5-Dihydroxy-6-(hydroxymethyl)-4-[[(2R,3S,4R,5S,6R)-3,4,5-trihydroxy-6-(hydroxymethyl)tetrahydropyran-2-yl]methyl]tetrahydropyran-2-yl]oxyphenyl]-N-methyl-benzamide] | 66
CNC(=O)c1cccc(-c2ccc(O[C@H]3O[C@H](CO)[C@@H](O)[C@H](C[C@H]4O[C@H](CO)[C@@H](O)[C@H](O)[C@@H]4O)[C@@H]3O)c(C)c2)c1 [Compound 4, 3-[4-[(2R,3S,4S,5S,6R)-3,5-Dihydroxy-6-(hydroxymethyl)-4-[[(2R,3S,4R,5S,6R)-3,4,5-trihydroxy-6-(hydroxymethyl)tetrahydropyran-2-yl]methyl]tetrahydropyran-2-yl]oxy-3-methyl-phenyl]-N-methyl-benzamide] | 51
CNC(=O)c1cccc(O[C@H]2O[C@H](CO)[C@@H](O)[C@H](C[C@H]3O[C@H](CO)[C@@H](O)[C@H](O)[C@@H]3O)[C@@H]2O)c1 [Compound 5, 3-[(2R,3S,4S,5S,6R)-3,5-Dihydroxy-6-(hydroxymethyl)-4-[[(2R,3S,4R,5S,6R)-3,4,5-trihydroxy-6-(hydroxymethyl)tetrahydropyran-2-yl]methyl]tetrahydropyran-2-yl]oxy-N-methyl-benzamide] | 72
OC[C@H]1O[C@H](C[C@@H]2[C@H](O)[C@@H](Oc3cccc(O)c3)O[C@H](CO)[C@H]2O)[C@@H](O)[C@@H](O)[C@@H]1O [Compound 6, (2R,3S,4R,5S,6R)-2-[[(2R,3S,4S,5S,6R)-3,5-Dihydroxy-2-(hydroxymethyl)-6-(3-hydroxyphenoxy)tetrahydropyran-4-yl]methyl]-6-(hydroxymethyl)tetrahydropyran-3,4,5-triol] | 301
Cc1nnc(-c2ccc(-c3ccc(O[C@H]4O[C@H](CO)[C@@H](O)[C@H](C[C@H]5O[C@H](CO)[C@@H](O)[C@H](O)[C@@H]5O)[C@@H]4O)cc3)cc2)o1 [Compound 7, (2R,3S,4R,5S,6R)-2-[[(2R,3S,4S,5S,6R)-3,5-Dihydroxy-2-(hydroxymethyl)-6-[4-[4-(5-methyl-1,3,4-oxadiazol-2-yl)phenyl]phenoxy]tetrahydropyran-4-yl]methyl]-6-(hydroxymethyl)tetrahydropyran-3,4,5-triol] | 94
CNC(=O)c1cc(C(=O)NC)cc(-c2ccc(O[C@H]3O[C@H](CO)[C@@H](O)[C@H](C[C@H]4O[C@H](CO)[C@@H](O)[C@H](O)[C@@H]4O)[C@@H]3O)cc2)c1 [Compound 8, 5-[4-[(2R,3S,4S,5S,6R)-3,5-Dihydroxy-6-(hydroxymethyl)-4-[[(2R,3S,4R,5S,6R)-3,4,5-trihydroxy-6-(hydroxymethyl)tetrahydropyran-2-yl]methyl]tetrahydropyran-2-yl]oxyphenyl]-N1,N3-dimethyl-benzene-1,3-dicarboxamide] | 64
CNC(=O)Cc1cccc(-c2ccc(O[C@H]3O[C@H](CO)[C@@H](O)[C@H](C[C@H]4O[C@H](CO)[C@@H](O)[C@H](O)[C@@H]4O)[C@@H]3O)cc2)c1 [Compound 9, 2-[3-[4-[(2R,3S,4S,5S,6R)-3,5-Dihydroxy-6-(hydroxymethyl)-4-[[(2R,3S,4R,5S,6R)-3,4,5-trihydroxy-6-(hydroxymethyl)tetrahydropyran-2-yl]methyl]tetrahydropyran-2-yl]oxyphenyl]phenyl]-N-methyl-acetamide] | 79
CNC(=O)Cc1cccc(-c2cccc(O[C@H]3O[C@H](CO)[C@@H](O)[C@H](C[C@H]4O[C@H](CO)[C@@H](O)[C@H](O)[C@@H]4O)[C@@H]3O)c2)c1 [Compound 10, 2-[3-[3-[(2R,3S,4S,5S,6R)-3,5-Dihydroxy-6-(hydroxymethyl)-4-[[(2R,3S,4R,5S,6R)-3,4,5-trihydroxy-6-(hydroxymethyl)tetrahydropyran-2-yl]methyl]tetrahydropyran-2-yl]oxyphenyl]phenyl]-N-methyl-acetamide] | 50
O=c1[nH]cc(-c2ccc(O[C@H]3O[C@H](CO)[C@@H](O)[C@H](C[C@H]4O[C@H](CO)[C@@H](O)[C@H](O)[C@@H]4O)[C@@H]3O)cc2)c(=O)[nH]1 [Compound 11, 5-[4-[(2R,3S,4S,5S,6R)-3,5-Dihydroxy-6-(hydroxymethyl)-4-[[(2R,3S,4R,5S,6R)-3,4,5-trihydroxy-6-(hydroxymethyl)tetrahydropyran-2-yl]methyl]tetrahydropyran-2-yl]oxyphenyl]-1H-pyrimidine-2,4-dione] | 97
O=C1NCC(c2ccc(O[C@H]3O[C@H](CO)[C@@H](O)[C@H](C[C@H]4O[C@H](CO)[C@@H](O)[C@H](O)[C@@H]4O)[C@@H]3O)cc2)=C(O)N1 [Compound 12, 5-[4-[(2R,3S,4S,5S,6R)-3,5-Dihydroxy-6-(hydroxymethyl)-4-[[(2R,3S,4R,5S,6R)-3,4,5-trihydroxy-6-(hydroxymethyl)tetrahydropyran-2-yl]methyl]tetrahydropyran-2-yl]oxyphenyl]-6-hydroxy-3,4-dihydro-1H-pyrimidin-2-one] | 111
CNC(=O)c1cc(C(=O)NC)cc(-c2cccc(O[C@H]3O[C@H](CO)[C@@H](O)[C@H](C[C@H]4O[C@H](CO)[C@@H](O)[C@H](O)[C@@H]4O)[C@@H]3O)c2)c1 [Compound 13, 5-[3-[(2R,3S,4S,5S,6R)-3,5-Dihydroxy-6-(hydroxymethyl)-4-[[(2R,3S,4R,5S,6R)-3,4,5-trihydroxy-6-(hydroxymethyl)tetrahydropyran-2-yl]methyl]tetrahydropyran-2-yl]oxyphenyl]-N1,N3-dimethyl-benzene-1,3-dicarboxamide] | 48
CNC(=O)c1ccc(-c2ccc(C)c(O[C@H]3O[C@H](CO)[C@@H](O)[C@H](C[C@H]4O[C@H](CO)[C@@H](O)[C@H](O)[C@@H]4O)[C@@H]3O)c2)cc1 [Compound 15, 4-[3-[(2R,3S,4S,5S,6R)-3,5-Dihydroxy-6-(hydroxymethyl)-4-[[(2R,3S,4R,5S,6R)-3,4,5-trihydroxy-6-(hydroxymethyl)tetrahydropyran-2-yl]methyl]tetrahydropyran-2-yl]oxy-4-methyl-phenyl]-N-methyl-benzamide] | 19
